Where “and” joins values, the source holds several entries; their conditions need not be identical. Equal entries are not always repeated. Where two headings read alike, the source gives them in different places.
What was measured:
Format in all cases: cell-based
MIA PaCa-2 = assay: MTT cell viability assay, MIA PaCa-2
Experimental: (§1) All cell lines were cultured at 37 °C with 5% CO2 in a humidified incubator. HeLa cells were grown in MEM (Gibco) supplemented with 10% fetal bovine serum (FBS, Hyclone) and 1% penicillin/streptomycin (Gibco). MIA PaCa-2, MDA-MB-231, A549, MCF-7, A375 and BEAS-2B cells were grown in DMEM (Gibco) supplemented with 10% FBS and 1% penicillin/streptomycin. CT26, and HCT116 cells were grown in RPMI-1640 supplemented with 10% FBS and 1% penicillin/streptomycin. All cell lines were purchased from the National Collection of Authenticated Cell Cultures (China).
(§2) The antiproliferative activities of the prepared compounds against tested cell lines were evaluated using a standard (MTT)-based colorimetric assay. Cells were plated at a density of 3000 cells/well in 96-well plates and allowed to adhere overnight. Then cells were treated with varying concentrations of synthesized compounds for 72 h. At the end of treatment, 20 μL of thiazolyl blue tetrazolium bromide (MTT) solution (5 mg/mL) was added to each well. Cells were incubated for an additional 4 h at 37 °C and then the medium was removed and replaced with 200 μL of DMSO. The absorbance (OD490) was read on a microplate reader (SpectraMax i3x, Molecular Devices, US). In all experiments, three replicate wells were used for each drug concentration. Each assay was performed at least three times. The IC50 values were calculated by GraphPad Prism 9, which were the mean values derived from three independent experiments.

A549 = assay: MTT cell viability assay, A549
Experimental: as §1, §2

MDA-MB-231 cells [1] = assay: Transmission electron microscopy of cell morphology; details: 15ai 4 μM, 24 h
Experimental: Cells were plated at a density of 6 × 10^5 cells/dish in 10 cm culture dishes and allowed to adhere overnight. Then cells were treated with DMSO or compound 15ai for 24 h. Cells were fixed with 2.5% glutaraldehyde in […] phosphate buffer, followed by 1% OsO4 for 2 h. After dehydration, cells were embedded in epoxy resin. The ultrathin sections were made by an ultramicrotome and then stained with lead citrate and uranyl acetate. Images were acquired using the transmission electron microscope (Hitachi H-7650 100kv, Hitachi, Japan). Each experiment was repeated three times independently with similar results.

cancer cell lines = assay: In vitro cancer cell assays (antiproliferation, cell line not given); details: improvement over vellosimine (4)
Experimental: as §1, §2

GPX4 = assay: Western blotting, GPX4 protein expression; details: 15ai 0, 2, 4 and 8 μM, 24 h
Experimental: Cells on 6-well plates were rinsed twice with cold PBS and lysed in RIPA lysis buffer (50 mM Tris (pH 7.4), 150 mM NaCl, 1% Triton X-100, 1% deoxycholicphenyl methylsulfonyl fluoride, 5.0 mM sodium pyrophosphate, […] leupeptin, 0.1 mM phenylmethylsulfonyl fluoride, and1 mM DTT) containing a protease inhibitor (PMSF) mixture at 1:100 dilution on ice for 30 min. The insoluble components of cell lysates were removed by centrifugation (4 °C, 12000 × g, 10 min), and protein concentrations were measured using a Pierce BCA protein assay kit. Proteins were separated by sodium dodecyl sulfate-polyacrylamide gel electrophoresis (SDS-PAGE) and transferred onto polyvinylidene difluoride (PVDF) membranes. Membranes were blocked using 5% skim milk in TBST and then incubated with diluted indicated primary antibodies: anti-GPX4 (1:1000 dilution, Proteintech, Cat No: 30388-1-AP), anti-SLC7A11 (1:1000 dilution, ABclonal, Cat No: A13685), anti-GAPDH (1:1000 dilution, Wanlei, Cat No: WL01114) at 4 °C with gentle shaking overnight. After washing five times (5 min each) with TBST, membranes were incubated with the HRP conjugated goat anti rabbit IgG (H + L) (1:5000 dilution, Wanlei, Cat No: WLA023) for 1 h at rt. Immunoreactive bands were visualized using an ECL detection kit (Wanlei, Cat No: WLA006) following the manufacturer’s instruction on the ChemiDoc system (BioRad, Shanghai, China).

Hela = assay: MTT cell viability assay, Hela
Experimental: as §1, §2

MCF-7 = assay: MTT cell viability assay, MCF-7
Experimental: as §1, §2

CT26 = assay: MTT cell viability assay, CT26
Experimental: as §1, §2

A375 = assay: MTT cell viability assay, A375
Experimental: as §1, §2

HCT 116 = assay: MTT cell viability assay, HCT 116
Experimental: as §1, §2

MDA-MB-231 cells [2] = assay: Measurement of lipid (BODIPY-C11) and cytosolic (DCFH-DA) ROS; details: 12 h; suppressed by Fer-1 (10 μM)
Experimental: Lipid ROS was analyzed by flow cytometry: cells were plated at a density of 2 × 10^5 cells/well in 6-well plates. After treatment as indicated, cells were stained with 5 μM BODIPY-C11 dye (diluted in serum-containing DMEM) for 30 min at 37 °C in an incubator. For cytosolic ROS, cells were stained with 10 μM DCF (diluted in serum-free DMEM). Following staining, cells were pelleted and resuspended in 1 mL of PBS. Fluorescence intensity was measured by the analytical flow cytometry (CytoFLEX, […], US). A minimum of 10,000 cells were analyzed for each condition. Data analysis was performed using the FlowJo 7.6.1 software. The starting cell population gating by Forward Scatter and Side Scatter was used to make sure doublet exclusion. Only single cell was used for analysis.

Structure (SMILES): C=C=C1CN2[C@H]3C[C@H]1[C@H](C=O)[C@@H]2Cc1c3n(S(=O)(=O)c2ccc(C)cc2)c2ccc(Cl)cc12 [Compound 15ai]
- IC50 (MIA PaCa-2; Homo sapiens, MIA PaCa-2, 72 h, MTT, 72 h, mean of at least three independent experiments, read-out: IC50 MIA PaCa-2): 8.32 µM
- IC50 (MIA PaCa-2; Homo sapiens, MIA PaCa-2, source data sheet, single values of three experiments, read-out: MTT IC50 MIA PaCa-2): 7.92 µM
- IC50 (MIA PaCa-2; source data sheet, single values of three experiments, read-out: MTT IC50 MIA PaCa-2): 10 µM and 7.05 µM
- IC50 (A549; Homo sapiens, A549, 72 h, MTT, 72 h, mean of at least three independent experiments, read-out: IC50 A549): 13 µM
- IC50 (A549; Homo sapiens, A549, source data sheet, single values of three experiments, read-out: MTT IC50 A549): 14.6 µM
- IC50 (A549; source data sheet, single values of three experiments, read-out: MTT IC50 A549): 12.5 µM and 11.8 µM
- cell morphology by TEM (MDA-MB-231 cells [1]): mitochondrial swelling occurred
- anticancer activity compared to vellosimine (4) (cancer cell lines): tenfold-improved
- protein level of GPX4 (GPX4): did not affect the protein level of GPX4
- IC50 (Hela; Homo sapiens, HeLa, 72 h, MTT, 72 h, mean of at least three independent experiments, read-out: IC50 Hela): 2.95 µM
- IC50 (Hela; Homo sapiens, HeLa, source data sheet, single values of three experiments, read-out: MTT IC50 Hela): 3.02 µM
- IC50 (Hela; source data sheet, single values of three experiments, read-out: MTT IC50 Hela): 2.02 µM and 3.81 µM
- IC50 (MCF-7; Homo sapiens, MCF7, 72 h, MTT, 72 h, mean of at least three independent experiments, read-out: IC50 MCF-7): 13.9 µM
- IC50 (MCF-7; Homo sapiens, MCF7, source data sheet, single values of three experiments, read-out: MTT IC50 MCF-7): 16 µM
- IC50 (MCF-7; source data sheet, single values of three experiments, read-out: MTT IC50 MCF-7): 12.8 µM and 12.9 µM
- IC50 (CT26; Mus musculus, CT26, 72 h, MTT, 72 h, mean of at least three independent experiments, read-out: IC50 CT26): 5.98 µM
- IC50 (CT26; Mus musculus, CT26, source data sheet, single values of three experiments, read-out: MTT IC50 CT-26): 7.11 µM
- IC50 (CT26; source data sheet, single values of three experiments, read-out: MTT IC50 CT-26): 5.83 µM and 4.99 µM
- IC50 (A375; Homo sapiens, A-375, 72 h, MTT, 72 h, mean of at least three independent experiments, read-out: IC50 A375): 2.64 µM
- IC50 (A375; Homo sapiens, A-375, source data sheet, single values of three experiments, read-out: MTT IC50 A375): 2.78 µM
- IC50 (A375; source data sheet, single values of three experiments, read-out: MTT IC50 A375): 1.96 µM and 3.18 µM
- IC50 (HCT 116; Homo sapiens, HCT-116, 72 h, MTT, 72 h, mean of at least three independent experiments, read-out: IC50 HCT 116): 4.78 µM
- IC50 (HCT 116; Homo sapiens, HCT-116, source data sheet, single values of three experiments, read-out: MTT IC50 HCT-116): 6.28 µM
- IC50 (HCT 116; source data sheet, single values of three experiments, read-out: MTT IC50 HCT-116): 3.83 µM and 4.24 µM
- lipid ROS and cytosolic ROS accumulation (MDA-MB-231 cells [2]): induce lipid ROS and cytosolic ROS accumulation significantly
